Experiments:
normal rats = assay: relative nephrotoxicity of HPBCD and BCD, intraperitoneal; format: in vivo, rat; conditions: for Mortality (died/total): BCD 0.75% w/v, HPBCD 1.5 and 3% w/v, 15 ml/100 g i.p.
Method: A first study was conducted to determine the relative nephrotoxicity of HPBCD and BCD. A control group using phosphate buffer solution was also included in the study.
Three groups of normal rats were utilized in this study. […] Group I rats were given the vehicle solution of phosphate buffer saline (PBS). Group II rats were subdivided into three sub-groups. The first sub-group received a solution having a concentration of 1.5% HPBCD, the second sub-group received a solution having a concentration of 3% HPBCD while the third sub-group received a solution having a concentration of 6% HPBCD. Group III rats were given a solution having a concentration of 0.75% BCD.
Animals from each group were sacrificed at 24 and 72 hours after injection of the peritoneal solution. The animals were sacrificed under general anesthesia and exsanguinated from the abdominal aorta. Plasma was separated and blood urea nitrogen and creatinine was measured and used as an index of renal toxicity of the solutions.

[1] = tested on: rats [Crl:CD(SD) BR strain]; assay: 14-day intravenous toxicity study in rats; format: in vivo, rat
Method: As part of the toxicological evaluation of HPBCD, control groups of animals were dosed with HPBCD alone.
Two groups (5/sex/group) of rats [Crl:CD(SD) BR strain] were used for this study. Control rats were given 200 mg of salt per kilogram of body weight intravenously administered in a saline control solution comprising 20% salt by weight in water. The saline control was administered every second day for 14 days (i.e. seven injections). The treated rats were given 200 mg of HPBCD per kilogram of body weight intravenously administered (200 mg/kg i.v. HPBCD) via a HPBCD solution containing 20% HPBCD by weight in water on the same injection schedule. […] At the end of the study the animals were necropsied, gross pathology was observed, histopathological samples were prepared and blood was drawn for clinical laboratory measurements.

[2] = 1 day, BCD 0.75%, HPBCD 1.5 and 3%
[3] = 3 day, BCD 0.75%, HPBCD 1.5 and 3%
[4] = female rats, 200 mg/kg i.v., 14 days
[5] = male rats, 200 mg/kg i.v., 14 days

hydroxypropyl-beta-cyclodextrin [HPBCD]
Mortality (died/total) (normal rats; 1 day): 0/6
Kidney size (normal rats; [2]): normal
Kidney weight (normal rats; [2]): normal
BUN (normal rats; 1 day, BCD 0.75%, HPBCD 1.5 and 3%, Table III): 14.8 mg/dL
Mortality (died/total) (normal rats; 3 day): 0/6
Kidney size (normal rats; [3]): normal
Kidney weight (normal rats; [3]): normal
BUN (normal rats; 3 day, HPBCD 1.5 and 3%, Table III): 19.8 mg/dL
BUN (normal rats; HPBCD 1.5%, 1d, n = 6): 14.8 mg/dL
Final body weight Wt (f) (normal rats; HPBCD 1.5%, 1d, n = 6): 210 g
Initial body weight Wt (i) (normal rats; HPBCD 1.5%, 1d, n = 6): 213 g
Left kidney weight (Lt kd) (normal rats; HPBCD 1.5%, 1d, n = 6): 867 mg
Left kidney/body weight (Lt kd/wt) (normal rats; HPBCD 1.5%, 1d, n = 6): 4.11 mg/g
Mortality (normal rats; HPBCD 1.5%, 1d, n = 6): 0%
Right kidney weight (Rt kd) (normal rats; HPBCD 1.5%, 1d, n = 6): 860 mg
Right kidney/body weight (Rt kd/wt) (normal rats; HPBCD 1.5%, 1d, n = 6): 4.08 mg/g
BUN (normal rats; HPBCD 1.5%, 3d, n = 6): 19.8 mg/dL
Final body weight Wt (f) (normal rats; HPBCD 1.5%, 3d, n = 6): 280 g
Initial body weight Wt (i) (normal rats; HPBCD 1.5%, 3d, n = 6): 296 g
Left kidney weight (Lt kd) (normal rats; HPBCD 1.5%, 3d, n = 6): 1027 mg
Left kidney/body weight (Lt kd/wt) (normal rats; HPBCD 1.5%, 3d, n = 6): 3.68 mg/g
Mortality (normal rats; HPBCD 1.5%, 3d, n = 6): 0%
Right kidney weight (Rt kd) (normal rats; HPBCD 1.5%, 3d, n = 6): 1009 mg
Right kidney/body weight (Rt kd/wt) (normal rats; HPBCD 1.5%, 3d, n = 6): 3.61 mg/g
BUN (normal rats; HPBCD 3%, 1d, n = 6): 15.7 mg/dL
Final body weight Wt (f) (normal rats; HPBCD 3%, 1d, n = 6): 301 g
Initial body weight Wt (i) (normal rats; HPBCD 3%, 1d, n = 6): 322 g
Left kidney weight (Lt kd) (normal rats; HPBCD 3%, 1d, n = 6): 1034 mg
Left kidney/body weight (Lt kd/wt) (normal rats; HPBCD 3%, 1d, n = 6): 3.43 mg/g
Mortality (normal rats; HPBCD 3%, 1d, n = 6): 0%
Right kidney weight (Rt kd) (normal rats; HPBCD 3%, 1d, n = 6): 1054 mg
Right kidney/body weight (Rt kd/wt) (normal rats; HPBCD 3%, 1d, n = 6): 3.49 mg/g
BUN (normal rats; HPBCD 3%, 3d, n = 6): 19.9 mg/dL
Final body weight Wt (f) (normal rats; HPBCD 3%, 3d, n = 6): 267 g
Initial body weight Wt (i) (normal rats; HPBCD 3%, 3d, n = 6): 275 g
Left kidney weight (Lt kd) (normal rats; HPBCD 3%, 3d, n = 6): 995 mg
Left kidney/body weight (Lt kd/wt) (normal rats; HPBCD 3%, 3d, n = 6): 3.72 mg/g
Mortality (normal rats; HPBCD 3%, 3d, n = 6): 0%
Right kidney weight (Rt kd) (normal rats; HPBCD 3%, 3d, n = 6): 1009 mg
Right kidney/body weight (Rt kd/wt) (normal rats; HPBCD 3%, 3d, n = 6): 3.78 mg/g
BUN (normal rats; HPBCD 6%, 1d, n = 6): 14.5 mg/dL
Final body weight Wt (f) (normal rats; HPBCD 6%, 1d, n = 6): 227 g
Initial body weight Wt (i) (normal rats; HPBCD 6%, 1d, n = 6): 240 g
Left kidney weight (Lt kd) (normal rats; HPBCD 6%, 1d, n = 6): 1076 mg
Left kidney/body weight (Lt kd/wt) (normal rats; HPBCD 6%, 1d, n = 6): 4.73 mg/g
Mortality (normal rats; HPBCD 6%, 1d, n = 6): 0%
Right kidney weight (Rt kd) (normal rats; HPBCD 6%, 1d, n = 6): 1066 mg
Right kidney/body weight (Rt kd/wt) (normal rats; HPBCD 6%, 1d, n = 6): 4.70 mg/g
Rats died (normal rats; HPBCD Groups, 1 and 3 day, in words): None of the rats
Albumin/Globulin (Ratio) [1, 4]: 0.9 ± 0.06
Triglycerides [1, 4]: 35.0 ± 12.00 mg/dL
White blood cells [1, 4]: 7.4 ± 2.56 × 10^3 /mm^3
Number of observations (antemortem) ([1]; female, 200 mg/kg i.v.): 0/5
Number of deaths ([1]; female, 200 mg/kg i.v. every second day, 14 days): 0/5
Body weight gain ([1]; female, week 1, 200 mg/kg i.v.): 16.0 ± 5.00 Grams
Food intake ([1]; female, week 1, 200 mg/kg i.v.): 107.9 ± 10.59 Grams
Body weight gain ([1]; female, week 2, 200 mg/kg i.v.): 18.0 ± 4.21 Grams
Food intake ([1]; female, week 2, 200 mg/kg i.v.): 112.1 ± 12.47 Grams
Adrenals weight to total body weight ratio ([1]; females): 0.0328 Weight Percent of Total Body W
Kidney weight to total body weight ratio ([1]; females): 0.9937 Weight Percent of Total Body W
Body weight gains vs saline control ([1]; in words): No difference
Food intake vs saline control ([1]; in words): No difference
Gross pathology ([1]; in words): No changes in gross pathology attributable to HPBCD treatment were observed
Abumin/Globulin (Ratio) [1, 5]: 0.9 ± 0.08
Alanine amino transferase [1, 5]: 24.0 ± 6.70 IU/L
Albumin [1, 5]: 3.0 ± 0.08 G/dL
Alkaline phosphatase [1, 5]: 137.0 ± 26.20 IU/L
Aspartate amino transferase [1, 5]: 124.0 ± 37.36 IU/L
Basophils [1, 5]: 0.00 ± 0.00 × 10^3 /mm^3
Blood urea nitrogen [1, 5]: 11.2 ± 0.87 mg/dL

Reference: patent US4889634A, “Dialysate solution containing hydroxypropyl-beta-cyclodextrin and method of using same” (priority 1988, dated 1989)
